Experiments:
[1] = target: T1, humanMTH1 (aminoacids 42 to 197) (Homo sapiens, UniProt P36639); test: Binding affinities and kinetics on MTH1 surfaces by surface plasmon resonance (SPR); conditions: on MTH1
T1 construct: humanMTH1 (aminoacids 42 to 197); His tag at the N-terminus; purchased Abnova ab99390; host or cells: E. coli

[2] = Microsomal stability (intrinsic clearance), mouse; format: in vitro ADME; conditions: mouse liver microsomes, 0.5 mg/ml protein, Clint
Text: A microsomal stability assay is used to measure in vitro clearance (Clint). The assay involves measuring the rate of disappearance of a compound due to its intrinsic attitude to be metabolized (“intrinsic” meaning that the disappearance is not affected by other properties like permeability, binding etc. that play a role when quantifying in vivo clearance). The microsomal stability (intrinsic clearance, Clint) and thus metabolic stability is generally given as μl/min/mg protein. It can be visualized as the volume of solution that 1 mg of microsomes is able to clear of the compound in one minute.
A Tecan Genesis workstation (RSP 150/8) was used for to perform the microsomal incubations. Analysis was carried out using a Waters ACQUITY UPLC system coupled to an ABSciex API3000 mass spectrometer. Data analysis was performed using Assay Explorer (Symyx).
Column: Acquity UPLC BEH C18, 2.1×50 mm, 1.7 μm (Waters) Mobile phases: A=0.1% formic acid in water; B=acetonitrile
Flow rate: 0.750 mL/min; Detection: ESI, MRM; Injection: 10 μL; Column temperature: 50° C.
• Potassium phosphate buffer: 0.05 M potassium phosphate buffer pH 7.4 containing 1 mM MgCl2 • NADPH (nicotinamide adenine dinucleotide phosphate): 22.5 mg NADPH-Na4 in 1.8 ml potassium phosphate buffer • Acetonitrile: 50 Vol % acetonitrile (1 volume acetonitrile, 1 volume water) • DMSO: 20 Vol % DMSO in water • Stock solution of 20 mg/ml human or mouse liver microsomes (protein)/ml in phosphate buffer • Stock solution of 10 mM compound in 100% DMSO
Dilution of test compounds was done in 2 steps starting from a 10 mM stock solution of the respective compound in 100% DMSO. First 4 μl stock solution was added to 196 μl of 20 Vol % DMSO. In a second step, 10 μl of the first dilution were added to 1590 μl potassium phosphate buffer to achieve a final concentration of 1.25 μM in the final compound dilution. Thus, the amount of organic solvent in the assay was kept to a minimum (<1%).
The human or mouse liver microsome (protein) solution to be used in the assay was prepared by mixing 750 μl stock solution (20 mg/ml) and 2250 μl potassium phosphate buffer to a final concentration of 5 mg/ml.
Incubation was carried out on a 96 deep well incubation plate. 160 μl per well of the final compound dilution were transferred onto the incubation plate. Four samples of each compound dilution were assayed. 20 μl/well liver microsome solution was added to each well and the samples were then preincubated for 5 min at 37° C. and 800 rpm agitation. Two reference compounds (verapamil and dextromethorphan) were used in parallel in every experiment and for each species (human or mouse microsomes) to ensure system performance and for comparison.
On a separate stop plate, 160 μl acetonitrile were added per well.
After preincubation, i.e. at time t1=0 minutes, 18 μl samples of incubated compound solution and were transferred and added per well (containing acetonitrile) on the stop plate to prevent a reaction (0 minutes control samples, 4 samples per compound). Equally, 18 μl samples of incubated reference compound solution were transferred and added per well (containing acetonitrile) on the stop plate at time t1=0 minutes and again after 30 minutes (t4), solubility and chemical stability of the compound were checked. […]

CNc1cc(-c2cccc(Cl)c2Cl)nc(N)n1 [TH-287, reference compound]
residence time ([1]; calculated on the basis of the KD values): < 1 min | residence time ([1]; value in brackets): 0.9 min | Microsomal stability mouse [2]: 444 μl/min/mg prot.
